According to patent US9242996B2 (Novartis AG, priority 2013, dated 2016):

Target: activated ERK2 (Homo sapiens (Human), UniProt P28482)
Assay: Activated ERK2 (20 pM) Kinase Assay (AlphaScreen, ERKtide phosphorylation)
Format: biochemical
Conditions: 0.02 nM ERK2, 400 nM ERKtide peptide, 35 μM ATP, 30 min preincubation
How it was run: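 AlphaScreen read-out (anti-phospho-EGFR Thr669 antibody, protein A acceptor/streptavidin donor beads) of ERKtide (400 nM) phosphorylation by 20 pM activated ERK2 at 35 μM ATP.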

Chain of activated ERK2 (P28482 whole entry): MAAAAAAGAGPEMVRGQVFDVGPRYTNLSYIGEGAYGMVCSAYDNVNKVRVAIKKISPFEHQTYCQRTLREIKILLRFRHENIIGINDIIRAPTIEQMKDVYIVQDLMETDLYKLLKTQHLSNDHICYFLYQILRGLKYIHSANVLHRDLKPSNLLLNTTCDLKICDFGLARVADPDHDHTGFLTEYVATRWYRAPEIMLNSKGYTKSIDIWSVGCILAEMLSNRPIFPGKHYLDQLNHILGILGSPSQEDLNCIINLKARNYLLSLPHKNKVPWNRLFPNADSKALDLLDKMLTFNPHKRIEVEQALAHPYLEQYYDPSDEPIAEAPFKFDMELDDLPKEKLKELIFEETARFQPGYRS

| IC50 [nM] | Compound |
| --- | --- |
| 0.00837 | NC[C@@H](NC(=O)c1ccc(-c2nc([C@H]3CC[C@H](O)CC3)cnc2N)cc1F)c1cc(F)cc(I)c1 [Example 373, N-((S)-2-amino-1-(3-fluoro-5-iodophenyl)ethyl)-4-(3-amino-6-((1r,4S)-4-hydroxy-cyclohexyl)pyrazin-2-yl)-2-fluorobenzamide] |
| 0.00665 | CNC[C@@H](NC(=O)c1ccc(-c2nc([C@H]3CC[C@H](O)CC3)cnc2N)cc1F)c1cc(F)cc(I)c1 [Example 360, 4-(3-amino-6-((1r,4S)-4-hydroxy-cyclohexyl)pyrazin-2-yl)-2-fluoro-N-((S)-1-(3-fluoro-5-iodophenyl)-2-(methylamino)ethyl)benzamide] |
| 430 | CN1C[C@@H](NC(=O)c2ccc(-c3cc(-c4cnn(C)c4)cnc3N)cc2F)[C@H](c2ccc(F)c(Cl)c2)C1 (stereo in doubt) [Example 207, trans-4-(2-amino-5-(1-methyl-1H-pyrazol-4-yl)pyridin-3-yl)-N-((3S,4R)-4-(3-chloro-4-fluorophenyl)-1-methylpyrrolidin-3-yl)-2-fluorobenzamide] |
| 0.3 | Nc1ncc([C@H]2CCC[C@@H](O)C2)nc1-c1ccc(C(=O)N[C@H](CO)c2cccc(Cl)c2)c(F)c1 (single isomer, unassigned) [Example 199] |
| 0.0055 | Nc1ncc([C@H]2CC[C@H](O)[C@@H](O)C2)nc1-c1ccc(C(=O)N[C@H](CO)c2cc(F)cc(I)c2)c(F)c1 [Example 463, 4-(3-amino-6-((1S,3S,4S)-3,4-dihydroxy-cyclohexyl)pyrazin-2-yl)-2-fluoro-N-((S)-1-(3-fluoro-5-iodophenyl)-2-hydroxyethyl) benzamide] |
| 0.483 | Nc1ncc([C@@H]2CCC(F)(F)[C@H](O)C2)nc1-c1ccc(C(=O)N[C@H](CO)c2cccc(Cl)c2)c(F)c1 [Example 471, 4-(3-amino-6-((1R,3R)-4,4-difluoro-3-hydroxycyclo-hexyl)pyrazin-2-yl)-N-((S)-1-(3-chlorophenyl)-2-hydroxyethyl)-2-fluorobenzamide] |
| 0.223 | Nc1ncc([C@H]2CCC[C@@H](O)C2)nc1-c1ccc(C(=O)N[C@H](CO)c2cccc(Cl)c2)c(F)c1 (single isomer, unassigned) [Example 198] |
| 0.152 | Nc1ncc([C@H]2CC[C@H](O)CC2)nc1-c1ccc(C(=O)N[C@H]2C[C@@H]2c2ccccc2)c(F)c1 [Example 202, 4-(3-amino-6-((1r,4S)-4-hydroxycyclohexyl)pyrazin-2-yl)-2-fluoro-N-((1S,2R)-2-phenylcyclopropyl)benzamide] |
| 0.0956 | Nc1ncc([C@H]2CC[C@@H](O)CC2)nc1-c1ccc(C(=O)N[C@H](CO)c2cc(F)cc(I)c2)c(F)c1 [Example 345, 4-(3-amino-6-((1s,4R)-4-hydroxy-cyclohexyl)pyrazin-2-yl)-2-fluoro-N-((S)-1-(3-fluoro-5-iodophenyl)-2-hydroxyethyl) benzamide] |
| 1.5 | N#CC1CCC(c2cnc(N)c(-c3ccc(C(=O)N[C@H](CO)c4cc(F)cc(Br)c4)c(F)c3)n2)CC1 (stereo partly drawn) [Example 450, (S)-4-(3-amino-6-(4-cyanocyclohexyl)pyrazin-2-yl)-N-(1-(3-bromo-5-fluorophenyl)-2-hydroxyethyl)-2-fluorobenzamide] |
| 0.0168 | Cc1nn(C(F)F)cc1-c1cnc(N)c(-c2ccc(C(=O)N[C@H](CO)c3cccc(CF)c3)c(F)c2)c1 [Example 261, (S)-4-(2-amino-5-(1-(difluoromethyl)-3-methyl-1H-pyrazol-4-yl)pyridin-3-yl)-2-fluoro-N-(1-(3-(fluoromethyl)phenyl)-2-hydroxyethyl) benzamide] |
| 0.0482 | Cc1c(-c2cnc(N)c(-c3ccc(C(=O)N[C@H](CO)c4cc(F)cc(C(F)F)c4)c(F)c3)c2)cnn1C(F)F [Example 273, (S)-4-(2-amino-5-(1-(difluoromethyl)-5-methyl-1H-pyrazol-4-yl)pyridin-3-yl)-N-(1-(3-(difluoromethyl)-5-fluorophenyl)-2-hydroxyethyl)-2-fluorobenzamide] |
